# Earlier results, collected in PMC4894406, “Results of an abbreviated phase-II study with the Akt Inhibitor MK-2206 in Patients with Advanced Biliary Cancer” (Scientific Reports, 2015).
# Test system: cholangiocarcinoma cell lines
# Settings: pre-clinical data; cited from earlier work
compound,measurement,value
O=c1cc(N2CCOCC2)oc2c(-c3ccccc3)cccc12 [LY294002],effect on CXCL12-induced cholangiocarcinoma cell invasion,attenuated
N#CC(=C(/N)Sc1ccccc1N)/C(C#N)=C(/N)Sc1ccccc1N [UO126],effect on CXCL12-induced cholangiocarcinoma cell invasion,attenuated
